Legend:
Assay in all cases: Radioligand ([3H]N-methylscopolamine) binding assay, CHO cell membranes
human M1 receptor = target: T1, human M1 receptor (Homo sapiens, UniProt P11229); conditions: 1.5 nM tritiated N-methylscopolamine, 90 minutes at 37° C.; read-out: Binding affinity (Ki) M1
T1 construct: expressed in transfected cells; host or cells: CHO cells
T1 sequence (P11229 1-460): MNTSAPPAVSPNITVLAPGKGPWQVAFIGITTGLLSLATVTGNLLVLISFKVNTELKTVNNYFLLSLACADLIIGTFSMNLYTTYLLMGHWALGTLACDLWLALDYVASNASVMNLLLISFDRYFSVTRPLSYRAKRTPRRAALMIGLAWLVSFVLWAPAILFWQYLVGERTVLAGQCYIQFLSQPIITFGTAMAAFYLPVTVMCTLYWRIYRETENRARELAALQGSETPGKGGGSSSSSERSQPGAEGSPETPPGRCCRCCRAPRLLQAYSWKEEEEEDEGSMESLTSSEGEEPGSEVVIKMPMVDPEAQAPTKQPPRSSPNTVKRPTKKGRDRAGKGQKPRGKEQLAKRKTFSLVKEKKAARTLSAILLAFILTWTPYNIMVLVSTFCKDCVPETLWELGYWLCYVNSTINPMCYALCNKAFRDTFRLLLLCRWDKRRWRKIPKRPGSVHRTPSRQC
Protocol: (§1) Binding affinity (Ki) of compounds was measured by inhibition of radioligand binding to membranes from CHO cells expressing human M1, M2, M3, M4 and M5 receptors. Membranes were prepared by nitrogen cavitation and differential centrifugation as previously described (Hoare et al., Mol. Pharmacol. 2003 March; 63(3): 751-65). The radioligand employed was tritiated N-methylscopolamine, used at a concentration of 1.5 nM. A dose-response of twelve concentrations of compound was used, ranging from […]. The assay buffer was 50 mM HEPES, 100 mM NaCl, 5 mM MgCl2, 1 mM ethylenediaminetetraacetic acid, pH-adjusted to pH 7.4. Membranes, radioligand and compound were incubated together for 90 minutes at 37° C., in a total volume of 150 μL in a 96-well plate. Receptor-bound radioligand was then collected by harvesting the assay over glass fiber filters pretreated with polyethylenimine to trap the cell membranes, using rapid vacuum filtration. Harvesting and radioactivity counting was conducted as previously described (see, e.g., Hoare et al., Mol. Pharmacol. 2003 63(3):751-65); Erratum at Mol. Pharmacol. 2005 July; 68(1): 260).

human M3 receptor = target: T2, human M3 receptor (Homo sapiens, UniProt P20309); conditions: 1.5 nM tritiated N-methylscopolamine, 90 minutes at 37° C.; read-out: Binding affinity (Ki) M3
T2 construct: expressed in transfected cells; host or cells: CHO cells
T2 sequence (P20309 whole entry): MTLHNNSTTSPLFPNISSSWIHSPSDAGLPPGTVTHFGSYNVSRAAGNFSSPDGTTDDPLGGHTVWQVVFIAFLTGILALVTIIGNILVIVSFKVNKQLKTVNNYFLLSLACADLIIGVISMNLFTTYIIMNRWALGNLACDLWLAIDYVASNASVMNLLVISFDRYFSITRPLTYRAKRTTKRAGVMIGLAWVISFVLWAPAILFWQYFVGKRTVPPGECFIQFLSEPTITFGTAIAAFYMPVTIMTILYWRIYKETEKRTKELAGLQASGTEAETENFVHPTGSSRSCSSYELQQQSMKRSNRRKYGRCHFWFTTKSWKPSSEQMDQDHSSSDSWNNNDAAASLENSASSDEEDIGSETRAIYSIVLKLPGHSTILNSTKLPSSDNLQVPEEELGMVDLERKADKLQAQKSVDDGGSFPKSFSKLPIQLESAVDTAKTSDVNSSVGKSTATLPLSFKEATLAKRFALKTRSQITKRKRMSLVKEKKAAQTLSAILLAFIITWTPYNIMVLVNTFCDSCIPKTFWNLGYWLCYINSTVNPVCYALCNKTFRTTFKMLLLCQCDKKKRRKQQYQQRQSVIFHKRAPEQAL
Protocol: as §1

human M5 receptor = target: T3, human M5 receptor (Homo sapiens, UniProt P08912); conditions: 1.5 nM tritiated N-methylscopolamine, 90 minutes at 37° C.; read-out: Binding affinity (Ki) M5
T3 construct: expressed in transfected cells; host or cells: CHO cells
T3 sequence (P08912 1-532): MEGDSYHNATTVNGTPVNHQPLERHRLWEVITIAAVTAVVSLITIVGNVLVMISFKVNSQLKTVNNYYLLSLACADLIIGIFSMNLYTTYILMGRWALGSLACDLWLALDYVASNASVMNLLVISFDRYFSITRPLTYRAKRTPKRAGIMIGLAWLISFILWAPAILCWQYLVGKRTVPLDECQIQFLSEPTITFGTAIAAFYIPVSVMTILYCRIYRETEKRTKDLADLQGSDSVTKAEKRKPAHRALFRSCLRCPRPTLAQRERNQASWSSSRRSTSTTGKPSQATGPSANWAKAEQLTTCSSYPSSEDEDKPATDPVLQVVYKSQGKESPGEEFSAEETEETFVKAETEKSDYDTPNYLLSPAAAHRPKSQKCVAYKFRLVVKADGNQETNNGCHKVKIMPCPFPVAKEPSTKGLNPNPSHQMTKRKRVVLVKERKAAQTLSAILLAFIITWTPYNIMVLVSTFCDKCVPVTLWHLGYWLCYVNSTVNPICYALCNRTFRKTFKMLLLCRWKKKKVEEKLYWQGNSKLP
Protocol: as §1

Measured: Ki

C[C@@H]1CN(c2cnc(C(F)(F)F)cn2)C[C@H](C)N1C(=O)OCCC1CCN(Cc2ccccc2)CC1 [Compound 1, 2-(1-benzylpiperidin-4-yl)ethyl (2R,6S)-2,6-dimethyl-4-[5-(trifluoromethyl)pyrazin-2-yl]piperazine-1-carboxylate]
≥ 1000 nM: all assays above

C[C@@H]1CN(c2cnc(C(F)(F)F)cn2)C[C@@H](C)N1C(=O)OCCC1CCN(Cc2ccccc2)CC1 [Compound 2, 2-(1-benzylpiperidin-4-yl)ethyl (2R,6R)-2,6-dimethyl-4-[5-(trifluoromethyl)pyrazin-2-yl]piperazine-1-carboxylate]
≥ 1000 nM: all assays above
